Laboratory results taken from ChEMBL document CHEMBL3259577, “Antagonists of the kappa opioid receptor” (Bioorg Med Chem Lett, 2014).
Peptide text beside a SMILES is read from it.

Assays:
Mu-type opioid receptor [1] = target: T1, Mu-type opioid receptor (Cavia porcellus, UniProt P97266); assay: Antagonist activity at mu opioid receptor in guinea pig caudate assessed as inhibition of DAMGO-stimulated [35S]-GTP[gammaS] binding; assay type: functional
[2] = (§1) Antagonist activity at delta opioid receptor in guinea pig caudate assessed as inhibition of SNC-80-stimulated [35S]-GTP[gammaS] binding; parameters: species or system Cavia porcellus
Mu-type opioid receptor [3] = target: T2, Mu-type opioid receptor (Homo sapiens, UniProt P35372); assay: Inhibition of mu opioid receptor (unknown origin) using DAMGO by high content imaging beta-arrestin translocation assay
T2 sequence (P35372 whole entry): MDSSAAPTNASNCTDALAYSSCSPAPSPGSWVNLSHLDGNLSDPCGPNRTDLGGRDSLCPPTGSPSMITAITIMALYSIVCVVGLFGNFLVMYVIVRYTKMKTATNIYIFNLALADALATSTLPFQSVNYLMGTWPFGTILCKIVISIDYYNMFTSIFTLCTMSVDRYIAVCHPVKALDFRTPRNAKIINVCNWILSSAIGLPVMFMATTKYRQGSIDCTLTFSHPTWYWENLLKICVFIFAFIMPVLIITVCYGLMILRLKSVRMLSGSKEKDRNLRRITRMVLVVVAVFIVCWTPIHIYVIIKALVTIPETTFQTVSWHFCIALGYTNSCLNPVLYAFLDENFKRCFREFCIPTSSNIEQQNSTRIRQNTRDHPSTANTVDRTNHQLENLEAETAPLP

[4] = target: T3, Kappa-type opioid receptor (Homo sapiens, UniProt P41145); assay: Inhibition of kappa opioid receptor (unknown origin) using dynorphin A by DiscoveryRx b-arrestin PathHunter assay
T3 sequence (P41145 whole entry): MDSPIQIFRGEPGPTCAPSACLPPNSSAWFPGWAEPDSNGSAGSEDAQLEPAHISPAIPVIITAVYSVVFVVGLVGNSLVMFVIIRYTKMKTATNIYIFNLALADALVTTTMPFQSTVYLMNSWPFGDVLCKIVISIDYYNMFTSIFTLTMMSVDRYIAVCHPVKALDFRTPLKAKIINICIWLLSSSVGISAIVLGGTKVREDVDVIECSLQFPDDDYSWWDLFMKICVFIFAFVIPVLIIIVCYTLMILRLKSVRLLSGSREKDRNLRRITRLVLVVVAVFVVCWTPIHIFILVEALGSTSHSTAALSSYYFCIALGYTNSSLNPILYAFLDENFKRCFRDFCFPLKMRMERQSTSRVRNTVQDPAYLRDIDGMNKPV

[5] = target: T4, Delta-type opioid receptor (Homo sapiens, UniProt P41143); assay: Inhibition of delta opioid receptor (unknown origin) using SNC-80 by high content imaging beta-arrestin translocation assay
T4 sequence (P41143 whole entry): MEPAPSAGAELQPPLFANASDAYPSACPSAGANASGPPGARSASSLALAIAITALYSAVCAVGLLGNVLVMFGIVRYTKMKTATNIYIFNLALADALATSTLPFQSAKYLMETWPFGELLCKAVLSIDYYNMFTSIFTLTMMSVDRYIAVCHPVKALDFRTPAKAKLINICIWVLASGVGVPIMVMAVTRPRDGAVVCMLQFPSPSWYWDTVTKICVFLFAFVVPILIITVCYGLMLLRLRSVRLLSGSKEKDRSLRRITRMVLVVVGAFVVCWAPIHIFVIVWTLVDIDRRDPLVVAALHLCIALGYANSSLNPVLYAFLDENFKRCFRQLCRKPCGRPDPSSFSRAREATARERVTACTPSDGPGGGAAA

Mu-type opioid receptor [6] = target: T2, Mu-type opioid receptor; assay: Antagonist activity at human cloned mu opioid receptor expressed in CHO cells assessed as inhibition of DAMGO-stimulated [35S]-GTP[gammaS] binding; assay type: cell-based
[7] = target: T3, Kappa-type opioid receptor; assay: Antagonist activity at human cloned kappa opioid receptor expressed in CHO cells assessed as inhibition of Dynorphin A-stimulated [35S]-GTP[gammaS] binding; assay type: functional, cell-based
Mus musculus = organism: Mus musculus; assay: Antinociceptive activity in mouse assessed as reversal of U50488-induced withdrawl latencies; assay type: functional
Cavia porcellus = organism: Cavia porcellus; assay: as §1
[8] = target: Kappa-type opioid receptor (Rattus norvegicus) (UniProt P34975); assay: Displacement of [3H]CI977 from rat forebrain OPRK
Kappa-type opioid receptor (Rattus norvegicus), sequence (P34975 whole entry): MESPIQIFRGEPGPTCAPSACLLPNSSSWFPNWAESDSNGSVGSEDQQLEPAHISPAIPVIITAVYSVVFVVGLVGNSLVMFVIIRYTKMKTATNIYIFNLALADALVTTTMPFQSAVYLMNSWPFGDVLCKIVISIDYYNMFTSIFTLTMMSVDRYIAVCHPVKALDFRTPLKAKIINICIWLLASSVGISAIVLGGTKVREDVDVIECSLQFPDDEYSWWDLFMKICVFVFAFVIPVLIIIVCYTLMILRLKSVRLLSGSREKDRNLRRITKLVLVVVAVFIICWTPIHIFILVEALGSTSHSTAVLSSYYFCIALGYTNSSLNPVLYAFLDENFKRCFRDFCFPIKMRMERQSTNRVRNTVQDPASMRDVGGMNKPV

[9] = target: Mu-type opioid receptor (Rattus norvegicus) (UniProt P33535); assay: Displacement of [3H]DAMGO from rat forebrain OPRM
Mu-type opioid receptor (Rattus norvegicus), sequence (P33535 whole entry): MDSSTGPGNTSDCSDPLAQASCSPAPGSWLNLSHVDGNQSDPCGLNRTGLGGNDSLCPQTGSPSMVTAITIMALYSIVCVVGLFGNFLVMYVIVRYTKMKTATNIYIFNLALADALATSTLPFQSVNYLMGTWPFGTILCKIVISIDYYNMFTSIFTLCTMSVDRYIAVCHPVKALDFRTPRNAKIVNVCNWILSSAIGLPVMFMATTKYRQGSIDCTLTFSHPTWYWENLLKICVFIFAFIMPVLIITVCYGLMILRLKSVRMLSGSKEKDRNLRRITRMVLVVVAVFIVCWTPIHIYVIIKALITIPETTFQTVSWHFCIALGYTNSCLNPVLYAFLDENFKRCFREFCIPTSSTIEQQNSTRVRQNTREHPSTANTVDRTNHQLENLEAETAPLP

[10] = target: Kappa-type opioid receptor (Rattus norvegicus) (UniProt P34975); assay: Displacement of [3H]CI977 from rat forebrain OPRK assessed as maximal binding after 30 mins
Rattus norvegicus [11] = assay: Reduction in spiradoline-induced sc dosed rat plasma prolactin levels; assay type: functional; details: read-out: ID50 (the source's name)
[12] = target: T3, Kappa-type opioid receptor; assay: Displacement of [3H]diprenorphine from kappa opioid receptor (unknown origin) expressed in CHO cells membranes; assay type: cell membranes
Mu-type opioid receptor [13] = target: T2, Mu-type opioid receptor; assay: Displacement of [3H]diprenorphine from mu opioid receptor (unknown origin) expressed in CHO cells membranes; assay type: cell membranes
[14] = target: T4, Delta-type opioid receptor; assay: Displacement of [3H]diprenorphine from delta opioid receptor (unknown origin) expressed in CHO cells membranes; assay type: cell membranes
[15] = target: Kappa-type opioid receptor (Cavia porcellus, UniProt P41144); assay: Antagonist activity at kappa opioid receptor in guinea pig ileum assessed as inhibition of U50488-stimulated [35S]-GTP[gammaS] binding; assay type: functional, tissue-based; details: read-out: pA2 (converted)
Kappa-type opioid receptor (Cavia porcellus, UniProt P41144), sequence (P41144 whole entry): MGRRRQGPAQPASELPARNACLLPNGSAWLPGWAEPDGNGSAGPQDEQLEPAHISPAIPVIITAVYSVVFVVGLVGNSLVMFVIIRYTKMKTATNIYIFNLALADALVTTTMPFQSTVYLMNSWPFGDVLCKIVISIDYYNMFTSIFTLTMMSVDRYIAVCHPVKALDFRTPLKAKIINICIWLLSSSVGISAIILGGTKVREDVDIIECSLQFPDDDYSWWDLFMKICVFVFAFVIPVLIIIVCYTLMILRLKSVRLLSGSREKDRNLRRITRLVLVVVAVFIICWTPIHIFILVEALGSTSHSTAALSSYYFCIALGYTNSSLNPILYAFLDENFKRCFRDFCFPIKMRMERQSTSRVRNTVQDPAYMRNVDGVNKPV

Mu-type opioid receptor [16] = target: T1, Mu-type opioid receptor; assay: Antagonist activity at mu opioid receptor in guinea pig ileum assessed as inhibition of DAMGO-stimulated [35S]-GTP[gammaS] binding; assay type: functional, tissue-based; details: read-out: pA2 (converted)
CHO [17] = assay: Selectivity ratio of Ki for mu opioid receptor (unknown origin) expressed in CHO cell membranes to Ki for kappa opioid receptor (unknown origin) expressed in CHO cell membranes; assay type: cell-based; details: Homo sapiens
CHO [18] = assay: Selectivity ratio of Ki for delta opioid receptor (unknown origin) expressed in CHO cell membranes to Ki for kappa opioid receptor (unknown origin) expressed in CHO cell membranes; assay type: cell-based; details: Homo sapiens
[19] = target: T3, Kappa-type opioid receptor; assay: Antagonist activity at human cloned kappa opioid receptor expressed in CHO cells assessed as inhibition of U50488-stimulated [35S]-GTP[gammaS] binding; assay type: functional, cell-based
[20] = target: T3, Kappa-type opioid receptor; assay: Agonist activity at human cloned kappa opioid receptor expressed in CHO cells assessed as stimulation of [35S]-GTP[gammaS] binding; assay type: functional, cell-based
Mu-type opioid receptor [21] = target: T2, Mu-type opioid receptor; assay: Agonist activity at human cloned mu opioid receptor expressed in CHO cells assessed as stimulation of [35S]-GTP[gammaS] binding; assay type: cell-based
[22] = target: T4, Delta-type opioid receptor; assay: Agonist activity at human cloned delta opioid receptor expressed in CHO cells assessed as stimulation of [35S]-GTP[gammaS] binding; assay type: functional, cell-based
[23] = target: 5-hydroxytryptamine receptor 2B (Homo sapiens, UniProt P41595); assay: Binding affinity to 5-HT2B receptor (unknown origin)
5-hydroxytryptamine receptor 2B, sequence (P41595 whole entry): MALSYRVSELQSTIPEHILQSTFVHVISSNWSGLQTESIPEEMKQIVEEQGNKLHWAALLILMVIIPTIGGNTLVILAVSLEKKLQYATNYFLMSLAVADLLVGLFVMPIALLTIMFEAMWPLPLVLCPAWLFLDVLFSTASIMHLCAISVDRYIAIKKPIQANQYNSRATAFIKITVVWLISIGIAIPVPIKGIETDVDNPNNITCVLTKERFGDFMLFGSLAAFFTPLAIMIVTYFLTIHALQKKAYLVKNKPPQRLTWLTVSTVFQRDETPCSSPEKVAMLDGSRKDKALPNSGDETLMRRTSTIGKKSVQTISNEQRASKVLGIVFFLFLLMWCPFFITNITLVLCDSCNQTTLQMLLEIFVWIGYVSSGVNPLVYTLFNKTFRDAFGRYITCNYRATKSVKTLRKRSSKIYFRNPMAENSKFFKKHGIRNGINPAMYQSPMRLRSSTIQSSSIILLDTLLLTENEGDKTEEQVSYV

Histamine H1 receptor = Histamine H1 receptor (Homo sapiens, UniProt P35367); assay: Binding affinity to histamine H1 receptor (unknown origin)
Histamine H1 receptor, sequence (P35367 whole entry): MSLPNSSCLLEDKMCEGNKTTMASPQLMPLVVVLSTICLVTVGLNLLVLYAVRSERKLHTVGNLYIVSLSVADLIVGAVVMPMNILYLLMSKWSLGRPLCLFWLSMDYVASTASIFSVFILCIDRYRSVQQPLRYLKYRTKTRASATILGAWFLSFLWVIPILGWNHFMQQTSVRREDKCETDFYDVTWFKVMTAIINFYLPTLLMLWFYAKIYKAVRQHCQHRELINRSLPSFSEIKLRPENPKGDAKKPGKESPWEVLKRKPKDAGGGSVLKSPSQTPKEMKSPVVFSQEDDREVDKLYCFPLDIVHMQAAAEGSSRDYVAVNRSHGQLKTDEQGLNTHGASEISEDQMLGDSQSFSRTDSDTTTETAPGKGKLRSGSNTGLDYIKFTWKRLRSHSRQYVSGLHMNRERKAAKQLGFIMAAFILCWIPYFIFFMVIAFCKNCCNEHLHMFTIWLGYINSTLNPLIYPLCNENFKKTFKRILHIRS

[24] = target: Muscarinic acetylcholine receptor M1 (Homo sapiens, UniProt P11229); assay: Binding affinity to muscarinic M1 receptor (unknown origin)
Muscarinic acetylcholine receptor M1, sequence (P11229 whole entry): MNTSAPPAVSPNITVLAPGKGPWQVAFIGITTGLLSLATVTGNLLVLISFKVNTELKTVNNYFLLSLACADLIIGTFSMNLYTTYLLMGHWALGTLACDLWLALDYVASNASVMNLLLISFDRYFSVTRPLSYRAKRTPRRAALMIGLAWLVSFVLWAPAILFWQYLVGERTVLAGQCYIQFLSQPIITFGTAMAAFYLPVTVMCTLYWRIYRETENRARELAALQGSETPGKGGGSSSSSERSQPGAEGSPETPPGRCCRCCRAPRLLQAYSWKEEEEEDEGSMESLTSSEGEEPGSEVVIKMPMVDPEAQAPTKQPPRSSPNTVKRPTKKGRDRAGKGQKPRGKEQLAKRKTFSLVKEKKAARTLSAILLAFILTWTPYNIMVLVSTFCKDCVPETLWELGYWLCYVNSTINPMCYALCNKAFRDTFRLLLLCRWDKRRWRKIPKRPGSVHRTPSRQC

[25] = target: Muscarinic acetylcholine receptor M2 (Homo sapiens, UniProt P08172); assay: Binding affinity to muscarinic M2 receptor (unknown origin)
[26] = target: Muscarinic acetylcholine receptor M3 (Homo sapiens, UniProt P20309); assay: Binding affinity to muscarinic M3 receptor (unknown origin)
Muscarinic acetylcholine receptor M3, sequence (P20309 whole entry): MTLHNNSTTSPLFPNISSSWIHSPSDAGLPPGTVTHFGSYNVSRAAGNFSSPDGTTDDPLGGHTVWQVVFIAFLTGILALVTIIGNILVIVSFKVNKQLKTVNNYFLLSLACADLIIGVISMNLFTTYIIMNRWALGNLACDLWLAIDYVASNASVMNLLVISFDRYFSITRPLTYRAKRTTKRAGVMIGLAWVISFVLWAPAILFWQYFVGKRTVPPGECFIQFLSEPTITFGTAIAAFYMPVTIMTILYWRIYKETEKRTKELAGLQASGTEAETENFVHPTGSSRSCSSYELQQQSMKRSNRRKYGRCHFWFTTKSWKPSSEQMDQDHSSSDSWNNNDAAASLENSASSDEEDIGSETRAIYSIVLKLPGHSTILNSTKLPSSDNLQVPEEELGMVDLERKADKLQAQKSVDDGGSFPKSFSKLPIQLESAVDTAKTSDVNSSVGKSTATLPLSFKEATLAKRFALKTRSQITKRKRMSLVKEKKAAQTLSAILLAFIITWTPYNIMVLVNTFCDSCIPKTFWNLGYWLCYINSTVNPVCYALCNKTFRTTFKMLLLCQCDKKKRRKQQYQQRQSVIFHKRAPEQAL

[27] = target: Muscarinic acetylcholine receptor M4 (Homo sapiens, UniProt P08173); assay: Binding affinity to muscarinic M4 receptor (unknown origin)
Muscarinic acetylcholine receptor M4, sequence (P08173 whole entry): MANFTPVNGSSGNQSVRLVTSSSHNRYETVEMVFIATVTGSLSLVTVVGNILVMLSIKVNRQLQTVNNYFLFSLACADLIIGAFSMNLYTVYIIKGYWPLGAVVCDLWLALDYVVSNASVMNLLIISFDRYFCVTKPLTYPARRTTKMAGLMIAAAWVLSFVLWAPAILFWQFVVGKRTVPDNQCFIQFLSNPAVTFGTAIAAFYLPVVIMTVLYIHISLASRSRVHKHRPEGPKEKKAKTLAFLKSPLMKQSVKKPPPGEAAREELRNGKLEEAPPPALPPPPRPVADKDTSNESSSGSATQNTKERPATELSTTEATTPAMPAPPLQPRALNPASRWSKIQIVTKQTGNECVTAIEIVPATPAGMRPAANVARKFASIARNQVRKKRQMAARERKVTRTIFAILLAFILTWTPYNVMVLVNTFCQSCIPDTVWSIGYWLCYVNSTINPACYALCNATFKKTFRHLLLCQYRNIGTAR

[28] = target: Sodium-dependent noradrenaline transporter (Homo sapiens, UniProt P23975); assay: Binding affinity to NET (unknown origin)
[29] = target: Sigma non-opioid intracellular receptor 1 (Homo sapiens, UniProt Q99720); assay: Binding affinity to sigma-1 receptor (unknown origin)
[30] = Drug metabolism in human liver microsomes assessed as compound remaining after 1 hr; assay type: ADME; details: read-out: Drug metabolism
[31] = target: Alpha-2C adrenergic receptor (Homo sapiens, UniProt P18825); assay: Binding affinity to adrenergic alpha2C receptor (unknown origin)
[32] = target: T3, Kappa-type opioid receptor; assay: Inhibition of kappa opioid receptor (unknown origin) using dynorphin A by high content imaging beta-arrestin translocation assay
[33] = AUC in rat at 1 mg/kg, iv; assay type: ADME, organism-based; parameters: dose 1 mg/kg, route intravenous; details: plasma
[34] = Cmax in rat at 1 mg/kg, iv; assay type: ADME, organism-based; parameters: dose 1 mg/kg, route intravenous; details: in vivo
[35] = Tmax in rat at 1 mg/kg, iv; assay type: ADME, organism-based; parameters: dose 1 mg/kg, route intravenous; details: in vivo
[36] = Half life in rat at 1 mg/kg, iv; assay type: ADME, organism-based; parameters: dose 1 mg/kg, route intravenous; details: in vivo
[37] = Clearance in rat at 1 mg/kg, iv; assay type: ADME, organism-based; parameters: dose 1 mg/kg, route intravenous; details: in vivo
[38] = AUC in rat at 10 mg/kg, po; assay type: ADME, organism-based; parameters: dose 10 mg/kg, route oral; details: plasma
[39] = Cmax in rat at 10 mg/kg, po; assay type: ADME, organism-based; parameters: dose 10 mg/kg, route oral; details: in vivo
[40] = Tmax in rat at 10 mg/kg, po; assay type: ADME, organism-based; parameters: dose 10 mg/kg, route oral; details: in vivo
[41] = Half life in rat at 10 mg/kg, po; assay type: ADME, organism-based; parameters: dose 10 mg/kg, route oral; details: in vivo
[42] = Oral bioavailability in rat at 10 mg/kg; assay type: ADME, organism-based; details: in vivo
Rattus norvegicus [43] = assay: Analgesic activity in po dosed rat assessed as inhibition of formalin response; assay type: functional
Homo sapiens = organism: Homo sapiens; assay: Selectivity ratio for OPRK (unknown origin) to OPRM (unknown origin)

T1 sequence (P97266 whole entry): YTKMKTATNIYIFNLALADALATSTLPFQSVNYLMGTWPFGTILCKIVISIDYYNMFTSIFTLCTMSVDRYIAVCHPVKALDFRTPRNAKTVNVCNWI

`CC(C)[C@@H](CN1CC[C@@](C)(c2cccc(O)c2)[C@@H](C)C1)NC(=O)[C@H]1Cc2ccc(O)cc2CN1` [JDTIC] showed a Ki (Mu-type opioid receptor [1]) of 0.00216 µM and a Ki [2] greater than 0.3 µM.

`CCc1ccc(S(=O)(=O)NCc2ccc(C(=O)NCCN(Cc3ccccc3)C(C)C)cc2)cc1` gave an IC50 (Mu-type opioid receptor [3]) greater than 32 µM, an IC50 [4] of 1.12 µM and an IC50 [5] greater than 32 µM.

`C[C@@H]1NC(=O)[C@H](Cc2c[nH]c3ccccc23)NC(=O)[C@H](Cc2ccccc2)NC(=O)[C@@H]2CCCN2C1=O` (cyclo(APFW)) gave a Ke (Mu-type opioid receptor [6]) of 7.3 nM, a Kb [7] of 0.0026 µM and a Time (Mus musculus) of less than 18 h.

With `COc1ccc(N2CCN(CCCNC(=O)Cn3c(=O)c4cccn4c4cc(Br)cnc43)CC2)cc1` the IC50 [5] was greater than 32 µM.

With `CC(C)[C@@H](CN1CC[C@@](C)(c2cccc(O)c2)[C@@H](C)C1)NC(=O)CCc1ccc(O)cc1` the Ke (Cavia porcellus) was 450 nM.

For `CC(C)CNCc1ccc(-c2ccccc2S(=O)(=O)N2CCCC2)cc1` [PF-04455242], the ID50 [8] was 2 mg/kg, the ID50 [9] was 8.6 mg/kg and the Activity [10] was 82%. The ED50 (Rattus norvegicus [11]) was 2.3 mg/kg.

`CCOC(=O)C(CN1CC[C@@](C)(c2cccc(O)c2)[C@@H](C)C1)OC(=O)[C@H]1Cc2ccc(O)cc2CN1` (some centres not stated) showed a Ki [12] of 0.00172 µM, a Ki (Mu-type opioid receptor [13]) of 0.0265 µM and a Ki [14] of 1.06 µM. For the same compound, the Kb [15] was 0.0024 µM and the Kb (Mu-type opioid receptor [16]) was less than 5.01 µM.

`CC[C@H](C)[C@@H]1NC(=O)[C@H](CCCNC(=N)N)NC(=O)[C@@H](NC(=O)[C@H](Cc2ccccc2)NC(=O)CNC(=O)CNC(=O)[C@H](Cc2ccc(O)cc2)NCc2ccccc2)CC(=O)NC[C@@H](C(=O)N[C@@H](CCCNC(=N)N)C(=O)N2CCC[C@H]2C(=O)N[C@@H](CCCCN)C(N)=O)NC1=O` showed a Ratio Ki (CHO [17]) of 194 and a Ratio Ki (CHO [18]) greater than 330.

With `CC(C)[C@@H](CN1CC[C@@](C)(c2cccc(O)c2)[C@@H](C)C1)NC(=O)[C@H]1Cc2ccc(O)cc2CN1C` the Ke (Cavia porcellus) was greater than 300 nM.

With `CC1CN(CCCc2ccccc2)C2C[C@H](N)CC1(c1cccc(O)c1)C2` (some centres not stated) the Ke [19] was 10.1 nM, the EC50 [20] was greater than 5 µM and the EC50 (Mu-type opioid receptor [21]) was 19.5 µM. It also gave an EC50 [22] of 7.5 µM.

`Cc1ccc(S(=O)(=O)NCc2ccc(C(=O)NCCN(Cc3ccccc3)C(C)C)cc2)cc1` gave an IC50 (Mu-type opioid receptor [3]) greater than 24 µM, an IC50 [5] greater than 32 µM and a Ki [23] of less than 1 µM. For the same compound, the Ki (Histamine H1 receptor) was less than 1 µM, the Ki [24] was less than 1 µM and the Ki [25] was less than 1 µM. The Ki [26] was less than 1 µM, the Ki [27] was less than 1 µM and the Ki [28] was less than 1 µM. For the same compound, the Ki [29] was less than 1 µM, the remaining at 1 h [30] was 0.07% and the Ki [31] was less than 1 µM.

Work on `COc1ccc(N2CCN(CCCNC(=O)Cn3c(=O)c4cccn4c4cccnc43)CC2)cc1` yielded an IC50 (Mu-type opioid receptor [3]) greater than 32 µM, an IC50 [4] of 1.95 µM and an IC50 [32] of 1.3 µM. The IC50 [5] was greater than 32 µM.

`CC1CN(CCCc2ccccc2)C2C[C@H](NCC3CC3)CC1(c1cccc(O)c1)C2` (some centres not stated) showed an EC50 [20] greater than 5 µM, an EC50 (Mu-type opioid receptor [21]) of 130 µM and an EC50 [22] greater than 5 µM.

`O=C1N[C@@H](Cc2ccccc2)C(=O)N2CCC[C@H]2C(=O)N[C@@H](Cc2ccccc2)C(=O)N[C@H]1Cc1c[nH]c2ccccc12` (cyclo(FPFW)) gave a Kb (Mu-type opioid receptor [6]) of 0.0102 µM, a Kb [7] of 0.0652 µM and a Time (Mus musculus) greater than 24 h.

In the case of `COc1ccc(N2CCN(CCCNC(=O)Cn3c(=O)c4cccn4c4ccccc43)CC2)cc1`, the IC50 (Mu-type opioid receptor [3]) is reported as greater than 32 µM and the IC50 [5] is reported as greater than 32 µM.

In the case of `Cc1cc(C)cc([C@@H]2CCCN2Cc2ccc(Oc3ccc(C(N)=O)cc3F)cc2)c1` [ATICAPRANT], the AUC [33] is reported as 186 ng·h/mL, the Cmax [34] is reported as 334 ng/mL and the Tmax [35] is reported as 0 h. The half-life [36] was 1.8 h, the clearance [37] was 89.3 mL/min/kg and the AUC [38] was 466 ng·h/mL. The Cmax [39] was 95 ng/mL, the Tmax [40] was 2 h and the half-life [41] was 3.8 h. It also gave a bioavailability [42] of 25.4%, an ED50 (Rattus norvegicus [43]) of 0.4 mg/kg and a Ratio (Homo sapiens) of 43.
